# Patent US4952678A, “Trisazo dyes” (BASF Aktiengesellschaft, priority 1986, dated 1990)
# Legend:
# Assay type in all cases: physicochemical
# [1] = solubility in liquid crystal ZLI 2452 (saturated solution, comparison of absorbances); details: room temperature, in ZLI 2452
# Method: The solubility was determined as follows:
# 50 mg of the dye was stirred at room temperature into 1 ml of liquid crystal for 1 week, the saturated solution was centrifuged off the residue, and the solubility was determined by comparing the absorbences.
# [2] = order parameter S in liquid crystal ZLI 2452 (dichroic ratio by polarized absorbance); details: room temperature, in ZLI 2452
# Method: The order parameter S was determined in accordance with the known equation [formula] in a commercial measurement cell of homogeneous edge orientation (polyimide). The dichroic ratio CR was determined by measuring the absorbences E^.parallel. (measurement with light polarized parallel to the preferential direction of the nematic phase) and E^.perp. (measurement with light polarized perpendicular to the preferential direction of the nematic phase) and applying the relationship [formula] the dye concentration being so chosen as to give an E^.parallel. within the range from 1 to 2. The measurements were carried out on an Hitachi U 3200 spectrophotometer.
# [3] = absorption maximum in methylene chloride
SMILES,Solubility L [%] (at RT) [1],Order parameter S (at RT) [2],λmax [nm] (CH2 Cl2) [3]
CCCCC(CC)COc1ccc(N=Nc2ccc(N=Nc3ccc(N=Nc4ccc(OCc5ccccc5)c5ccccc45)cc3)cc2)c(CC)c1 (stereo not drawn) [Example 9],2.0,0.81,443
CCCCC(CC)COc1ccc(N=Nc2ccc(N=Nc3ccc(N=Nc4ccc(OCc5ccccc5)cc4C)cc3)cc2)c(CC)c1 (stereo not drawn) [Example 1],18.7,0.815,417
CCCCCCCCOc1ccc(N=Nc2ccc(N=Nc3ccc(N=Nc4ccc(OCc5ccccc5)cc4CC)cc3)cc2)c(CC)c1 [Example 4],6.4,0.79,419
CCCCCCCCOc1ccc(N=Nc2ccc(N=Nc3ccc(N=Nc4ccc(OCc5ccc(CCCCC)cc5)cc4CC)cc3)cc2)c(C)c1 [Example 3],5.3,0.82,418
CCCCC(CC)COc1ccc(N=Nc2ccc(N=Nc3ccc(N=Nc4ccc(OCc5ccccc5)cc4CC)cc3)cc2)c2ccccc12 (stereo not drawn) [Example 10],7.1,0.81,445
CCCCCCCCOc1ccc(N=Nc2ccc(N=Nc3ccc(N=Nc4ccc(OCc5ccc(OCCCCC)cc5)c5ccccc45)cc3)cc2)c(CC)c1 [Example 11],3.4,0.79,437
CCCCCCCCOc1ccc(N=Nc2ccc(N=Nc3ccc(N=Nc4ccc(OCc5ccc(OCCCCC)cc5)cc4CC)cc3)cc2)c(CC)c1 [Example 5],3.5,0.79,418
CCCCCCCCOc1ccc(N=Nc2ccc(N=Nc3ccc(N=Nc4ccc(OCc5ccc(CCCCC)cc5)cc4C)cc3)cc2)c(CC)c1 [Example 2],5.1,0.83,418

# Next, values leading:
Solubility L [%] (at RT) [1],Order parameter S (at RT) [2],λmax [nm] (CH2 Cl2) [3],SMILES
2.9,0.79,435,CCCCCOc1ccc(COc2ccc(N=Nc3ccc(N=Nc4ccc(N=Nc5ccc(OCC(CC)CCCC)cc5CC)cc4)cc3)c3ccccc23)cc1 (stereo not drawn) [Example 13]
2.0,0.81,535,CCCCCCCCCCCCNc1ccc(N=Nc2ccc(N=Nc3ccc(N=Nc4ccc(OCCCCCCCC)cc4CC)cc3)cc2)c2ccccc12 [Example 15]
2.4,0.79,441,CCCCCCCCOc1ccc(N=Nc2ccc(N=Nc3ccc(N=Nc4ccc(OCc5ccc(CCCCC)cc5)c5ccccc45)cc3)cc2)c(CC)c1 [Example 12]
5.0,0.81,443,CCCCCc1ccc(COc2ccc(N=Nc3ccc(N=Nc4ccc(N=Nc5ccc(OCC(CC)CCCC)cc5CC)cc4)cc3)c3ccccc23)cc1 (stereo not drawn) [Example 14]
1.3,0.80,489,CCCCC(CC)COc1ccc(N=Nc2ccc(N=Nc3ccc(N=Nc4ccc(OCc5ccccc5)cc4CC)c4ccccc34)cc2)c2ccccc12 (stereo not drawn) [Example 20]
5.5,0.79,459,CCCCC(CC)COc1ccc(N=Nc2ccc(N=Nc3ccc(N=Nc4ccc(OCc5ccccc5)cc4CC)c(OC)c3)cc2)c2ccccc12 (stereo not drawn) [Example 21]
8.0,0.80,533,CCCCCCCCCCCCNc1ccc(N=Nc2ccc(N=Nc3ccc(N=Nc4ccc(OCC(CC)CCCC)cc4CC)cc3)cc2)c2ccccc12 (stereo not drawn) [Example 16]
1.6,0.79,486,CCCCC(CC)COc1ccc(N=Nc2ccc(N=Nc3ccc(N=Nc4ccc(OCc5ccccc5)c5ccccc45)cc3)c3ccccc23)c(CC)c1 (stereo not drawn) [Example 19]
